Reference: patent US11779560B2 (priority 2020, dated 2023)

How the values were obtained:
Settings in all cases: 10-100 μM concentrations
[1] = tested on: mitochondrial electron transport chain and ATP synthase (Complex I-V); assay: MitoCheck Complex I-V activity assays in isolated mitochondria; assay type: biochemical, bovine
Experimental: MitoCheck Complex I-V activity assays were conducted in an Agilent Seahorse XFe96 analyzer to determine the effects of compounds on the mitochondrial electron transport chain and ATP synthase in isolated mitochondria. Compounds were screened in a dose dependent manner using 10-point ½ log dilutions in quadruplicate along with a […] for each of the five complexes.
Complex I activity was determined using an assay that measures the rotenone-sensitive rate of NADH oxidation by complex I in isolated bovine heart mitochondria. To prevent oxidation of ubiquinol by complex III, KCN (1 mM) was present to inhibit the downstream electron transport chain. […]
Complex II activity was determined using an assay that measures the succinate dependent rate of DCPIP reduction in isolated bovine heart mitochondria. […]
Complex III activity was determined using an assay measures the rate of cytochrome c reduction by the passage of electrons from complex II to complex III via ubiquinone in isolated bovine heart mitochondria. […]
Complex IV activity was determined using an assay that measures the rate of cytochromec oxidation by complex IV in isolated bovine heart mitochondria. […]
Complex V activity was determined using an assay that measures the rate of […] resulting from a series of coupled reactions linked to the hydrolysis of ATP by complex V in isolated bovine heart mitochondria. […]

[2] = tested on: HMEC-1 human dermal endothelial cells; assay: Mitochondrial stress test (Agilent Seahorse XFe96); assay type: cell-based
Experimental: A mitochondrial stress test was also conducted to determine the effects of the experimental compounds on cellular mitochondria. Assays were conducted using HMEC-1 human dermal endothelial cells optimized for use with the Agilent Seahorse XFe96 analyzer. HMEC-1 cells were obtained from ATCC and cultured in accordance with the supplier's guidelines: complete cell culture media consisted of MCD 131 supplemented with 10 ng/ml EGF 1 μg/ml hydrocortisone, 10 mM glutamine, 10% FBS, and 1% penicillin/streptomycin. To determine optimal cell seeding densities, cells were seeded in Agilent XF96 cell culture microplates at 80,000 cells/well at the highest concentration. […] Cell viability was assessed using trypan blue exclusion. […] (non-CO2) for 1 hour and imaged with a Cytation 5 imaging multimode plate reader (BioTek instruments) and analyzed using Prism 9.0 (GraphPad Software.) The stress test profile cycled through 18 minute exposures to oligomycin 1 μg/ml, FCCP 2 μM and antimycin A 10 μM/rotenone 1 μM. At the completion of the mitochondrial stress test, cells were imaged and Hoechst positive nuclei were quantified using the Seahorse Cell Analysis software. All data were analyzed using Wave Analysis software (version 2.6.1.53) and Prism 9.0 (GraphPad software). […]

[3] = tested on: HMEC-1 human dermal endothelial cells; assay: Cell TiterGlo ATP Luminescent Cell Viability assay (total cellular ATP); assay type: cell-based
Experimental: The Cell TiterGlo ATP Luminescent Cell Viability assay (Promega Cat. #G7571) was run to measure total cellular ATP in response to compound treatment. Assays were performed using HMEC-1 human dermal endothelial cells. Compounds were screened using 8-point ½ log dilutions in duplicate in the presence of vehicle.

O=C(CO)NCCCN[C@@H]1CO[C@H]2[C@@H]1OC[C@@H]2O[N+](=O)[O-] [CR-0305, (3S,3aS,6R,6aR)-6-((3-(2-hydroxyacetamido)propyl)amino)hexahydrofuro[3,2-b]furan-3-yl nitrate]
No significant toxicity: Toxicity, MitoCheck Complex I-V activity [1] | Toxicity, mitochondrial stress test [2] | Toxicity, effect of drug on ATP synthesis [3]
